Here are results for 16 compounds from patent US4990617A, “N-oxide prodrug derivatives of 3-hydroxy morphinans and partial morphinans and derivatives” (E. I. Du Pont de Nemours and Company, priority 1989, dated 1991).

Structures can show the parent of a compound that is named as a salt. Where two headings read alike, the source gives them in different places.

Data set [1] in a line: In vitro reduction of N-oxide to drug in rat intestine homogenate. As to conditions: in 10 minutes, rat intestine homogenate (25%), 37° C., read-out: Conversion of nalbuphine N-oxide to nalbuphine. The class given is in vitro ADME. As for the experimental part:
(§1) Among the experiments used to evaluate the N-oxide prodrugs of the instant invention were measurements of their reduction rates in vitro by various biological media from rats, dogs, and humans, and drug bioavailability in rats and dogs administered oral doses of the prodrug. Drug concentration was determined after solvent extraction, using high pressure liquid chromatography analytical procedures.
(§2) Prodrug was added to fresh biological medium to a concentration of 0.28 μM, incubated at 37° C., and the rate of drug appearance was measured.

Data set [2] in a line: In vitro reduction of N-oxide to drug in rat plasma. The class given is in vitro ADME. As to conditions: 37° C., read-out: t1/2 of conversion of nalbuphine N-oxide to nalbuphine (converted). On the procedure:
as §1, §2

A short description of data set [3]: In vitro reduction of N-oxide to drug in human plasma. It is filed as in vitro ADME. As to conditions: 37° C., 0.28 μM. As for the experimental part: as §1, §2
Data set [4] can be described thus: In vitro reduction of N-oxide to drug in rat liver homogenate. The class given is in vitro ADME. As to conditions: in 3 minutes, rat liver homogenate (25%), 37° C., read-out: Conversion of nalbuphine N-oxide to nalbuphine. As for the experimental part: as §1, §2
The nature of data set [5]: In vitro reduction of N-oxide to drug in dog plasma. The class given is in vitro ADME. As to conditions: 37° C., read-out: t1/2 of conversion of nalbuphine N-oxide to nalbuphine (converted). On the procedure: as §1, §2
For data set [6] the following is noted: literature, cited from earlier work; for therapeutic index: relative to corresponding tertiary amines.
The conditions of data set [7]: administered to mice; literature; cited from earlier work.
The conditions of data set [8]: administered to rabbits; literature; cited from earlier work.
For data set [9] the following is noted: administered to rats; literature; cited from earlier work.
For data set [10] the following is noted: background, cited from earlier work.
The conditions of data set [11]: guinea pig liver microsomal preparation; literature; cited from earlier work. For orientation: Liver microsomes are vesicles of endoplasmic reticulum, rich in cytochrome P450 enzymes.
A short description of data set [12]: Plasma naltrexone concentration after oral dosing in dogs. The class given is in vivo. As to conditions: dog, normalized for dose. On the procedure:
as §1
(§3) Rats and dogs were administered the parent drug intravenously and orally, and the prodrugs were administered orally. Usually, doses were administered as aqueous solutions prepared immediately before dosing. Plasma was collected and frozen until analysis of drug concentration. The area under the plasma drug concentration versus time curve (AUC) was calculated for each animal. […]. Relative bioavailability (RB) of parent drug was determined by comparing the bioavailability from orally administered prodrug F(pro) with the bioavailability from orally administered parent drug F(drug). [formula]

The conditions of data set [13]: literature, cited from earlier work.
A short description of data set [14]: Plasma naloxone concentration after oral dosing in dogs. It is filed as in vivo. As to conditions: dog; for concentration at 0.5 h / concentration at 1 h / concentration at 2 h / concentration at 3 h / concentration at 4 h / concentration at 6 h / concentration at 8 h: in vivo, equimolar oral doses, read-out: Average Plasma Naloxone Conc. On the procedure: as §1, §3

For data set [15] the following is noted: literature, cited from earlier work. This is another data set of the same source.
For data set [16] the following is noted: literature; cited from earlier work.
A short description of data set [17]: Oral bioavailability in rats. The class given is in vivo. As to conditions: plasma; rat, oral nalbuphine; read-out: F(DRUG), nalbuphine bioavailability from orally administered parent drug. On the procedure: as §1
(§4) Rats and dogs were administered the parent drug intravenously and orally, and the prodrugs were administered orally. Usually, doses were administered as aqueous solutions prepared immediately before dosing. Plasma was collected and frozen until analysis of drug concentration. The area under the plasma drug concentration versus time curve (AUC) was calculated for each animal. Bioavailability (F) was estimated by: [formula] F represents the percentage of the administered dose absorbed into plasma. Relative bioavailability (RB) of parent drug was determined by comparing the bioavailability from orally administered prodrug F(pro) with the bioavailability from orally administered parent drug F(drug). [formula]

A short description of data set [18]: Oral bioavailability in dogs. It is filed as in vivo. As to conditions: plasma, dog, read-out: oral bioavailability of nalbuphine. As for the experimental part: as §1, §4
The conditions of data set [19]: rabbits administered oxycodone subcutaneously; literature; cited from earlier work.

As to `[O-][N+]1(CC2CCC2)CC[C@]23c4c5ccc(O)c4O[C@H]2[C@@H](O)CC[C@@]3(O)[C@H]1C5` (stereo partly drawn) [Nalbuphine N-oxide], the metabolised at 10 min, 0.28 µM in data set [1] was 100%. Further, the half-life at 0.28 µM is 6 h in data set [2] and 53.7 h in data set [5]. The “Rate of conversion of nalbuphine N-oxide to nalbuphine” value in [3] is “negligible”. In addition, in data set [4], the metabolised at 0.05 h, 0.28 µM was 100%.
Regarding `C[N+]1([O-])CC[C@]23CCCC[C@H]2[C@H]1Cc1ccc(O)cc13` (stereo partly drawn) [3-hydroxy-N-methylmorphinan N-oxide], in [6], the therapeutic index result was “higher therapeutic index than the corresponding tertiary amines”.
As for `CCC(=O)OC1(c2ccccc2)CC[N+](C)([O-])CC1` (stereo not drawn) [N-oxide of 1-methyl-4-phenyl-4-piperidinol propionate], the “reduction of N-oxide to tertiary amine” value in data set [7], in data set [8] and in data set [9] was “partially reduced to the tertiary amine” throughout.
As for `COc1ccc2c3c1O[C@H]1C(=O)CC[C@@]4(O)[C@@H](C2)N(C)CC[C@]314` [Oxycodone], the oral potency entry in data set [10] is “similarly good oral potency”.
On to 3-methyl-morphine [Codeine], for which, in data set [10] (relative to morphine), the “oral:parenteral potency ratio” value is listed as “much higher oral:parenteral potency ratio than morphine”. In data set [11], the “conversion to N-oxide” value is “converted in part to the corresponding N-oxides”. In addition, the “metabolism to N-oxide” value in data set [9] was “partially metabolized to the N-oxides”.
For the compound `COc1ccc2c(c1)[C@@]13CCCC[C@H]1[C@@H](C2)[N+](C)([O-])CC3` (stereo partly drawn) [3-methoxy-N-methylmorphinan N-oxide], in [6], the therapeutic index entry is “higher therapeutic index than the corresponding tertiary amines”.
For the compound `O=C1CC[C@@]2(O)[C@H]3Cc4ccc(O)c5c4[C@@]2(CC[N+]3([O-])CC2CC2)[C@H]1O5` (stereo partly drawn) [Naltrexone N-oxide], the “Average Plasma Naltrexone Conc.” value was 424 ng/mL in data set [12] (0.25 hours); 752 ng/mL in data set [12] (0.5 hours); 713 ng/mL in data set [12] (1 hour); 559 ng/mL in data set [12] (1.5 hours); 484 ng/mL in data set [12] (2 hours); 251 ng/mL in [12] (3 hours). Moreover, the “Average Plasma Naltrexone Conc.” value in data set [12] (4 hours) was 110 ng/mL; in data set [12] (6 hours), 24 ng/mL; in data set [12] (8 hours), 8 ng/mL.
As to `C[N+]1([O-])CCC[C@H]1c1cccnc1` (stereo partly drawn) [nicotine-1'-N-oxide], the reduction to nicotine entry in data set [13] (man, oral versus intravenous) is “partially reduced to nicotine in man after oral administration, but not after intravenous administration”. Besides, in [13] (oral), the first-pass phenomenon entry is given as “substantially avoids the first-pass phenomenon seen with oral nicotine”.
As for `C=CCN1CC[C@]23c4c5ccc(O)c4O[C@H]2C(=O)CC[C@@]3(O)[C@H]1C5` [Naloxone, (-)-17-Allyl-4,5α-epoxy-3,14-dihydroxymorphinan-6-one], in data set [14], the concentration at 0.5 h was determined as 451 ng/mL, the concentration at 1 h turned out to be 176 ng/mL, the concentration at 2 h came out at 65 ng/mL and the concentration at 3 h worked out at 30 ng/mL. In [14], the concentration at 4 h was determined as 10 ng/mL, the concentration at 6 h came to 10 ng/mL and the concentration at 8 h was found to be 5 ng/mL.
As to `CC[N+]([O-])(CC)CC(=O)N1CCN2C(=O)c3ccccc3C12c1ccccc1` (stereo not drawn), in data set [15] (Swiss Patent No. 481,124), the pharmacological properties result was “analgesic, sedative, antitussive, hypotensive, and spasmolytic properties”.
Take `O=C1CC[C@@]2(O)[C@H]3Cc4ccc(O)c5c4[C@@]2(CCN3CC2CC2)[C@H]1O5` [Naltrexone, (-)-17-(Cyclopropylmethyl)-4,5α-epoxy-3,14-dihydroxymorphinan-6-one]: the “Average Plasma Naltrexone Conc.” value worked out at 9 ng/mL in data set [12] (0.25 hours); 9 ng/mL in data set [12] (0.5 hours); 4 ng/mL in data set [12] (1 hour); 4 ng/mL in data set [12] (1.5 hours); 0 ng/mL in [12] (2 hours); 0 ng/mL in data set [12] (3 hours). Moreover, the “Average Plasma Naltrexone Conc.” value in data set [12] (4 hours), in data set [12] (6 hours) and in data set [12] (8 hours) was 0 ng/mL throughout.
Turning to `C[N+]1([O-])CC[C@]23c4c5ccc(O)c4O[C@H]2[C@@H](O)C=C[C@H]3[C@H]1C5` (stereo partly drawn) [Morphine N-oxide], the analgesic activity result in data set [15] was “either less active or inactive as an analgesic”. Besides, in [16], the antitussive activity entry was “effective antitussive”. Moreover, the toxicity result in data set [6] is on record as “somewhat lower toxicity than morphine”. Moreover, the “reduction of N-oxide to tertiary amine” value in data set [9] was “partially reduced to morphine”.
As for `Oc1ccc2c3c1O[C@H]1[C@@H](O)CC[C@@]4(O)[C@@H](C2)N(CC2CCC2)CC[C@]314` [Nalbuphine, (-)-17-(Cyclobutylmethyl)-4,5α-epoxymorphinan-3,6α,14-triol], the bioavailability (as a rule, the share of a dose that reaches the circulation, judged against a reference dose that is usually intravenous) in [17] was 2.7 ± 0.4%; in data set [18] it was 5.4%.
`CCC(=O)OC1(c2ccccc2)CC[N+](C)([O-])CC1` (stereo not drawn) [N-oxide of 1-methyl-4-phenyl-4-propionoxypiperidine HCl]: the “duration of analgesic activity” value in [15] (relative to dolantin HCl) is recorded as “of longer duration”. Moreover, the analgesic activity result in [15] is “analgesic activity equal to that of dolantin HCl”. For the same compound, the toxicity entry in data set [6] was “Toxicity was also less”.
Consider `C=CC[N+]1([O-])CC[C@]23c4c5ccc(O)c4O[C@H]2C(=O)CC[C@@]3(O)[C@H]1C5` (stereo partly drawn) [Naloxone N-oxide, naloxone N-oxide], for which the “Oral naloxone bioavailability when administered as the N-oxide, relative to naloxone” value in data set [14] (oral) is recorded as “improved”. In addition, in data set [14], the concentration at 0.5 h was determined as 947 ng/mL, the concentration at 1 h was 1220 ng/mL, the concentration at 2 h was determined as 797 ng/mL and the concentration at 3 h turned out to be 289 ng/mL. Moreover, in data set [14], the concentration at 4 h is 107 ng/mL, the concentration at 6 h was found to be 22 ng/mL and the concentration at 8 h turned out to be 6 ng/mL.
As for `COc1ccc2c3c1O[C@H]1C(=O)CC[C@@]4(O)[C@@H](C2)[N+](C)([O-])CC[C@]314` (stereo partly drawn) [oxycodone N-oxide], the “form of metabolite in urine” value in [19] is recorded as “found only in the free, unconjugated form”.
